Data: US20020110808A1, “Toxicant-induced differential gene expression” (priority 2000, published 2002)
Read-outs that look alike come from different tables or passages of the source.

Legend:
HepG2 cells [1] = experiment: Quantitative RT-PCR (TaqMan); format: cell-based, human
Description: Primers and probes were designed using Primer Express software (Perkin-Elmer). TaqMan probes (Perkin-Elmer) were synthesized with reporter dye 6FAM at the 5′ end and quencher TAMRA at the 3′ end. RNA template concentrations were determined by absorbance at 260 nm. Reactions were performed as described […], using 2.5 ng RNA, 300 nM each PCR primer, and 150 nM Taqman probes. Control reactions were set up with reverse transcriptase or template omitted. Reactions were run on an ABI 7700 instrument (Perkin-Elmer) using the following cycling conditions: reverse transcription at 48° C. for 30 min; inactivation of reverse transcriptase at 95° C. for 10 min; 40 cycles of denaturation at 94° C. for 15 sec and extension at 60° C. for 1 min. Changes in expression were calculated from the displacement of the amplification curve in the treated sample relative to the control.

HepG2 cells [2] = experiment: cDNA array (GF200) expression profiling; format: cell-based, human; conditions: for Number of genes with statistically significant (p<0.05) change in expression in three or more adjacent time points: 1 to 24 hr time course
Description: Cells were grown in DMEM/F12 medium with 10% fetal bovine serum in tissue culture flasks for 3 days following splitting, at which time they were at or near confluency. […] For each treated sample, an untreated control flask was set up with the same medium. Following the treatment period, mRNA was isolated by affinity purification on oligo(dT) cellulose resin using the Poly(A) Pure mRNA isolation kit from Ambion. RNA quality was assessed by agarose gel electrophoresis, and yields were determined by absorbance at 260 nm.
Radiolabeled cDNA for array hybridizations were prepared as follows. To a solution of 2 μg of RNA in 8 μl DEPC-treated water was added 2 μl of 1 μg/μl oligo(dT) (10-20 mer mixture, Research Genetics). After incubation for 10 min at 70° C., the solution was chilled on ice for 2 min, and then added to 6 μl of 5× first strand buffer (250 mM Tris-HCl (pH 8.3), 375 mM KCl, 15 mM MgCl2; Gibco-BRL), 1 μl of 0.1M DTT, 1.5 μl dNTP mix (20 mM each dATP, dGTP and dTTP), 10 μl of 10 mCi/ml [α-^33P]dCTP (1000 Ci/mmol, Amersham), and 1.5 μl of 200 U/μl reverse transcriptase (Superscript II, Gibco-BRL). Following a 90 min incubation at 37° C., cDNA targets were purified by passage through G-50 Sephadex spin columns (Pharmacia) or Bio-Spin 6 columns (BioRad).
GF200 cDNA arrays (Research Genetics) were washed in 0.5% boiling SDS for 5 min and prehybridized for 3 hrs at 42° C. in 5 ml MicroHyb solution (Research Genetics) containing 5 μl of 1 μg/ml poly(dA) (Research Genetics) and 5 μl of 1 μg/ml human Cot-I DNA (Gibco-BRL) that was denatured for 3 min at 100° C. prior to use. Labeled target nucleic acids, boiled for 3 min, were added directly, and hybridization was allowed to proceed for 16-18 hr at 42° C. in roller bottles in hybridization ovens. Arrays were washed twice in 2× SSC, 1% SDS at room temperature for 2 min, and then twice in 0.5× SSC, 1% SDS at 65° C. for 20 min. Arrays were exposed to storage phosphor screens for 3 days and scanned using a phosphorimager (Molecular Dynamics). Arrays were stripped for reuse by placing in boiling 0.5% SDS and then incubating for 1.5 hr with shaking at room temperature, allowing to solution to cool. After stripping, arrays were exposed to storage phosphor screens overnight to confirm loss of signal.
Spot intensities were determined using Pathways software (Research Genetics). Data from quadruplicate sets of hybridizations were normalized by local regression using NLR software (Tom Kepler, North Carolina State University). Cluster analysis was carried out using the Clustan Graphics software package from Clustan Limited (Edinburgh).

HepG2 cells [3] = experiment: BrdU incorporation cell proliferation assay; format: cell-based
Description: HepG2 cells (see e.g., Aden et al., Nature 282:615-616 (1979)) (ATCC HB-8065) were maintained in DMEM/F-12 medium with 10% fetal bovine serum and 1% antibiotic/antimycotic. For routine culturing and mRNA preps, cells were grown in 75 cm^2 flasks and split every 4-5 days. For plate assays, cells were plated in 96-well microtiter plates at 1×10^5 cells per well in 100 μl of growth medium.
Depending on the desired exposure time, cell treatments began 3 or 4 days after splitting or plating. At this time, the cells were near or at confluency. […] Cell treatments were at 37° C.
Uptake of 5-bromo-2′-deoxyuridine (BrdU) was measured using the Cell Proliferation ELISA kit from Boehringer-Mannheim (Indianapolis, Ind.).
Cell proliferation assays based on measurement of BrdU incorporation were performed according to the manufacturer's instructions (Boehringer Mannheim “Cell Proliferation ELISA Kit”).

[4] = 20 mM acetaminophen, 16 mM caffeine, 100 mM thioacetamide

IC50 (HepG2 cells [3]; Homo sapiens, HepG2; read-out: IC50, BrdU incorporation in HepG2 cells) | SMILES | TTF-1 interacting peptide 21 down-regulation by RT-PCR (HepG2 cells [1]; acetaminophen, 12 hr) | Number of genes with statistically significant (p<0.05) change in expression in three or more adjacent time points (HepG2 cells [2]; [4]) | LDH-A down-regulation on arrays (HepG2 cells [2]; 24 hr, 20 mM acetaminophen, wash 0.5× SSC at 65° C.) | Metallothionein-1G induction on arrays (HepG2 cells [2]; acetaminophen, 24-hr time point) | TTF-1 interacting peptide 21 up-regulation on arrays (HepG2 cells [2]; acetaminophen, 12 hr) | inhibition at 20000 µM (HepG2 cells [3]; Homo sapiens, HepG2, 24 h; read-out: Inhibition of BrdU uptake (cell proliferation)) | Expression ratio (treated/control), RT-PCR: MT-1G (H53340) (HepG2 cells [1]; Thioacetamide (24 hr)) | Expression ratio (treated/control), RT-PCR: MT-2 (R16596) (HepG2 cells [1]; Thioacetamide (24 hr)) | Expression ratio (treated/control), RT-PCR: MT-1H (H77766) (HepG2 cells [1]; Thioacetamide (24 hr), not detectable in control samples) | Metallothionein-1H induction (HepG2 cells [2]) | Global differential gene expression (rms) over time (HepG2 cells [2]; 1 to 24 hr, 20 mM acetaminophen, 16 mM caffeine, 100 mM thioacetamide) | Expression ratio (treated/control), Array: MT-1B (H72722) (HepG2 cells [2]; Thioacetamide (24 hr)) | Expression ratio (treated/control), Array: MT-1G (H53340) (HepG2 cells [2]; Thioacetamide (24 hr)) | Expression ratio (treated/control), Array: MT-1H (H77766) (HepG2 cells [2]; Thioacetamide (24 hr)) | Expression ratio (treated/control), Array: MT-1L (N80129) (HepG2 cells [2]; Thioacetamide (24 hr)) | Expression ratio (treated/control), Array: MT-2 (R16596) (HepG2 cells [2]; Thioacetamide (24 hr)) | IC50 (HepG2 cells [3]; Homo sapiens, HepG2, read-out: IC50, BrdU incorporation in HepG2 cells)
~5 mM | CC(=O)Nc1ccc(O)cc1 [acetaminophen] | ~2 fold | 258 | 11 fold | 18 fold | 2.6 fold | 67 to 80% |  |  |  |  |  |  |  |  |  |  | 
 | CC(=N)S [thioacetamide] |  | 215 |  |  |  |  | 3.1 | 7.4 | >1000 | strongly induced | a high degree of differential expression is observed both at early and late time points | 15 | 15 | 16 | 14 | 15 | 57 mM
